From patent US20050261342A1, “Metabolites of (+)-(2S,3S)-3(2-methoxy-5- trifluoromethoxybenzylamino)-2-phenyl-piperidine” (Pfizer Inc., priority 2004, published 2005)

Experiment: Profiling and quantitative assessment of radiolabelled metabolites in human subjects after a single oral dose of [14C]-(+)-(2S, 3S)-3-(2-methoxy-5-trifluoromethoxybenzylamino)-2-phenyl-piperidine
Assay type: in vivo
Conditions: single 30 mg (free base) oral dose of [14C] parent compound, HPLC radioprofiling of pooled serum (1-24 h)
Method: Six healthy male human subjects (4 extensive metabolizers (EM) of CYP2D6 and 2 poor metabolizers (PM) of CYP2D6) were administered in a single 30 mg (free base) oral dose of (+)-(2S, 3S)-3-(2-methoxy-5-trifluoromethoxybenzylamino)-2-phenyl-piperidine containing 100 *Ci of [14C]-(+)-(2S, 3S)-3-(2-methoxy-5-trifluoromethoxybenzylamino)-2-phenyl-piperidine (Lot # 49800-59-3, specific activity 1.22 mCi/mmol, radio purity of >99%). Blood samples were collected into red-top tubes (no preservatives or anticoagulant or serum separator) at the following time points: 1, 4, 8, 12, and 24 hours post dose. The blood samples were centrifuged at 4° C. and serum was transferred to clean tubes.
a) Serum samples were pooled by human subject separately (3 ml from each sampling time, total of 15 ml) and aliquots of 1.5 mL from each pool were extracted with 5 mL of acetonitrile. The mixtures were vortex mixed for 5 minutes and centrifuged at 3500 rpm for 5 minutes to remove the precipitated proteins. Supernatants were combined and a small aliquot of supernatant was counted. Approximately 96% (average of all subjects) of the radioactivity was recovered in the supernatant. The supernatants were evaporated under N^2 in a turbovap at room temperature. […]
Measuring the radioactivity in the individual peaks separated on the HPLC column using a -RAM detector allowed the quantification of each metabolite. […]

accounted for % of the total radioactivity (EM subjects (extensive metabolizers of CYP2D6)): approximately 56%
accounted for % of the total radioactivity (PM subjects (poor metabolizers of CYP2D6)): ~29%
SMILES: O=C(O)c1cc(OC(F)(F)F)ccc1O [5-trifluoromethoxy salicylic acid, 2-Hydroxy-5-trifluoromethoxy-benzoic acid]
